The source of these data is ChEMBL document CHEMBL1132786, “Chemical modification of nodulisporic acid A: preliminary structure-activity relationships” (2000).

In the test the test system is Ctenocephalides felis. Kind of test: Systemic activity against adult cat fleas (Ctenocephalides felis). The test is classed as functional.
Turning to `C=C(C)[C@H]1C(=O)c2c3c(cc4c5c(n1c24)[C@@]1(C)C(CC[C@H]2[C@](C)(/C=C/C=C(\C)C(=O)Nc4ccc(F)cc4)[C@@H](O)CC[C@@]21C)C5)C1=CC(C)(C)OC(C)(C)C1[C@@H]3O` (stereo not given in full), the “Effective concentration, systemic activity against adult cat fleas” value (“Effective concentration” below) amounted to 1 p.p.m.
The value for `C=C(C)[C@H]1C(=O)c2c3c(cc4c5c(n1c24)[C@@]1(C)C(CC[C@H]2[C@](C)(/C=C/C=C(\C)C(=O)NC(C)(C)C(=O)OC)[C@@H](O)CC[C@@]21C)C5)C1=CC(C)(C)OC(C)(C)C1[C@@H]3O` (stereo not given in full) was 1 p.p.m; that for `C=C(C)[C@H]1C(=O)c2c3c(cc4c5c(n1c24)[C@@]1(C)C(CC[C@H]2[C@](C)(/C=C/C=C(\C)C(=O)NC)[C@@H](O)CC[C@@]21C)C5)C1=CC(C)(C)OC(C)(C)C1[C@@H]3O` (stereo not given in full) was about 0.1 p.p.m; that for `C=C(C)[C@H]1C(=O)c2c3c(cc4c5c(n1c24)[C@@]1(C)C(CC[C@H]2[C@](C)(/C=C/C=C(\C)C(=O)OC)[C@@H](O)CC[C@@]21C)C5)C1=CC(C)(C)OC(C)(C)C1[C@@H]3O` (stereo not given in full) was about 10 p.p.m.
With `C=C(C)[C@H]1C(=O)c2c3c(cc4c5c(n1c24)[C@@]1(C)C(CC[C@H]2[C@](C)(/C=C/C=C(\C)C(=O)NCC(N)=O)[C@@H](O)CC[C@@]21C)C5)C1=CC(C)(C)OC(C)(C)C1[C@@H]3O` (stereo not given in full), the “Effective concentration” value was 10 p.p.m.
The value for `C=C(C)[C@H]1C(=O)c2c3c(cc4c5c(n1c24)[C@@]1(C)C(CC[C@H]2[C@](C)(/C=C/C=C(\C)C(=O)N(CC)CCC)[C@@H](O)CC[C@@]21C)C5)C1=CC(C)(C)OC(C)(C)C1[C@@H]3O` (stereo not given in full) was about 0.1 p.p.m.
Next, `C=C(C)[C@H]1C(=O)c2c3c(cc4c5c(n1c24)[C@@]1(C)C(CC[C@H]2[C@](C)(/C=C/C=C(\C)C(=O)OCCOCCO)[C@@H](O)CC[C@@]21C)C5)C1=CC(C)(C)OC(C)(C)C1[C@@H]3O` (stereo not given in full): 0.1 p.p.m.
Next, `C=C(C)[C@H]1C(=O)c2c3c(cc4c5c(n1c24)[C@@]1(C)C(CC[C@H]2[C@](C)(/C=C/C=C(\C)C(=O)N(C)C)[C@@H](O)CC[C@@]21C)C5)C1=CC(C)(C)OC(C)(C)C1[C@@H]3O` (stereo not given in full): about 0.1 p.p.m; `C=C(C)[C@H]1C(=O)c2c3c(cc4c5c(n1c24)[C@@]1(C)C(CC[C@H]2[C@](C)(/C=C/C=C(\C)C(=O)NCc4ccc(Cl)cc4)[C@@H](O)CC[C@@]21C)C5)C1=CC(C)(C)OC(C)(C)C1[C@@H]3O` (stereo not given in full): 0.1 p.p.m.
Consider `C=C(C)[C@H]1C(=O)c2c3c(cc4c5c(n1c24)[C@@]1(C)C(CC[C@H]2[C@](C)(/C=C/C=C(\C)C(=O)N4CCCCC4)[C@@H](O)CC[C@@]21C)C5)C1=CC(C)(C)OC(C)(C)C1[C@@H]3O` (stereo not given in full), for which the “Effective concentration” value is on record as about 1 p.p.m.
The value for `C=C(C)[C@H]1C(=O)c2c3c(cc4c5c(n1c24)[C@@]1(C)C(CC[C@H]2[C@](C)(C=O)[C@@H](O)CC[C@@]21C)C5)C1=CC(C)(C)OC(C)(C)C1[C@@H]3O` (stereo not given in full) was about 10 p.p.m; that for `C=C(C)[C@H]1C(=O)c2c3c(cc4c5c(n1c24)[C@@]1(C)C(CC[C@H]2[C@](C)(/C=C/C=C(\C)C(=O)NCCCCCC)[C@@H](O)CC[C@@]21C)C5)C1=CC(C)(C)OC(C)(C)C1[C@@H]3O` (stereo not given in full) was about 0.5 p.p.m; that for `C=C(C)[C@H]1C(=O)c2c3c(cc4c5c(n1c24)[C@@]1(C)C(CC[C@H]2[C@](C)(/C=C/C=O)[C@@H](O)CC[C@@]21C)C5)C1=CC(C)(C)OC(C)(C)C1[C@@H]3O` (stereo not given in full) was about 10 p.p.m.
As for `C=C(C)[C@H]1C(=O)c2c3c(cc4c5c(n1c24)[C@@]1(C)C(CC[C@H]2[C@](C)(/C=C/C=C(\C)C(=O)OCCCO)[C@@H](O)CC[C@@]21C)C5)C1=CC(C)(C)OC(C)(C)C1[C@@H]3O` (stereo not given in full), the “Effective concentration” value worked out at 10 p.p.m.
The value for `C=C(C)[C@H]1C(=O)c2c3c(cc4c5c(n1c24)[C@@]1(C)C(CC[C@H]2[C@](C)(/C=C/C=C(\C)C(=O)NCCO)[C@@H](O)CC[C@@]21C)C5)C1=CC(C)(C)OC(C)(C)C1[C@@H]3O` (stereo not given in full) was 0.5 p.p.m; that for `C=C(C)[C@H]1C(=O)c2c3c(cc4c5c(n1c24)[C@@]1(C)C(CC[C@H]2[C@](C)(/C=C/C=C(\C)C(=O)OCCO)[C@@H](O)CC[C@@]21C)C5)C1=CC(C)(C)OC(C)(C)C1[C@@H]3O` (stereo not given in full) was about 1 p.p.m; that for `C=C(C)[C@H]1C(=O)c2c3c(cc4c5c(n1c24)[C@@]1(C)C(CC[C@H]2[C@](C)(/C=C/C=C(\C)C(N)=O)[C@@H](O)CC[C@@]21C)C5)C1=CC(C)(C)OC(C)(C)C1[C@@H]3O` (stereo not given in full) was about 0.1 p.p.m.
Next, `C=C(C)[C@H]1C(=O)c2c3c(cc4c5c(n1c24)[C@@]1(C)C(CC[C@H]2[C@](C)(/C=C/C=C(\C)C(=O)SCC)[C@@H](O)CC[C@@]21C)C5)C1=CC(C)(C)OC(C)(C)C1[C@@H]3O` (stereo not given in full): over 1 p.p.m; `C=C(C)[C@H]1C(=O)c2c3c(cc4c5c(n1c24)[C@@]1(C)C(CC[C@H]2[C@](C)(/C=C/C=C(\C)C(=O)NCCN(C)C)[C@@H](O)CC[C@@]21C)C5)C1=CC(C)(C)OC(C)(C)C1[C@@H]3O` (stereo not given in full): 10 p.p.m; `C=C(C)[C@H]1C(=O)c2c3c(cc4c5c(n1c24)[C@@]1(C)C(CC[C@H]2[C@](C)(/C=C/C=C(\C)C(=O)N4CCN(C)CC4)[C@@H](O)CC[C@@]21C)C5)C1=CC(C)(C)OC(C)(C)C1[C@@H]3O` (stereo not given in full): 1 p.p.m.
Next, `C=C(C)[C@H]1C(=O)c2c3c(cc4c5c(n1c24)[C@@]1(C)C(CC[C@H]2[C@](C)(/C=C/C=C(\C)C(=O)N4CCN(C(=O)OCC)CC4)[C@@H](O)CC[C@@]21C)C5)C1=CC(C)(C)OC(C)(C)C1[C@@H]3O` (stereo not given in full): 0.1 p.p.m; `C=C(C)[C@H]1C(=O)c2c3c(cc4c5c(n1c24)[C@@]1(C)C(CC[C@H]2[C@](C)(/C=C/C=C(\C)C(=O)NCCC(=O)O)[C@@H](O)CC[C@@]21C)C5)C1=CC(C)(C)OC(C)(C)C1[C@@H]3O` (stereo not given in full): over 10 p.p.m.
For the molecule `C=C(C)[C@H]1C(=O)c2c3c(cc4c5c(n1c24)[C@@]1(C)C(CC[C@H]2[C@](C)(/C=C/C=C(\C)C(=O)NC(C)(C)C(=O)N(C)C)[C@@H](O)CC[C@@]21C)C5)C1=CC(C)(C)OC(C)(C)C1[C@@H]3O` (stereo not given in full), the “Effective concentration” value is 0.01 p.p.m.
Next, `C=C(C)[C@H]1C(=O)c2c3c(cc4c5c(n1c24)[C@@]1(C)C(CC[C@H]2[C@](C)(/C=C/C=C(\C)C(=O)O)[C@@H](O)CC[C@@]21C)C5)C1=CC(C)(C)OC(C)(C)C1[C@@H]3O` (stereo not given in full) [NOD ACID A]: 1 p.p.m; `C=C(C)[C@H]1C(=O)c2c3c(cc4c5c(n1c24)[C@@]1(C)C(CC[C@H]2[C@](C)(/C=C/C=C(\C)C(=O)N4CCN(S(C)(=O)=O)CC4)[C@@H](O)CC[C@@]21C)C5)C1=CC(C)(C)OC(C)(C)C1[C@@H]3O` (stereo not given in full) [NODULISPORAMIDE]: about 0.01 p.p.m.
